Laboratory results: US12509459B2, “Inhibitors of NLRP3 inflammasome” (BioAge Labs, Inc., priority 2024, dated 2025)

Molecular target: NLRP3 (Homo sapiens, UniProt Q96P20)
Assay: THP-1 cell-based NLRP3 activation assay
Set-up: endogenous in cells; host or cells: THP-1 cells (PMA-differentiated, LPS-primed, nigericin-stimulated)
Settings: PMA-differentiated THP-1 cells, LPS 100 ng/mL then 10 μM nigericin
Method: THP-1 cells are cultured in complete media (CM) until they reach logarithmic growth and achieve a viability >90%. CM is composed of RPMI-1640 (+Glutamax)/10% fetal bovine serum/55 μM β-mercaptoethanol/pen/strep. Cells are spun down and resuspended to 1,000,000 cells/mL in CM containing either 20 nM or 500 nM PMA. 150,000 cells (150 μL) are then added to each well of a 96-well TC plate and incubated for either 24 hr or 3 hr, respectively, in a standard cell culture incubator (37° C.; 5% CO2). After this incubation, the plate is tilted and media carefully removed. 200 μL of CM containing 100 ng/mL LPS is then added to the wells and the cells incubated an additional 3 hrs. The media is again removed and replaced with Opti-Mem medium containing pre-determined dilutions of test compounds in replicate wells. After a 30 min incubation, 10 μM nigericin (final concentration) in Opti-Mem medium with the corresponding concentration of compound is added to the wells for an additional 1 hr. Positive control wells contain 10 μM nigericin in Opti-Mem in the absence of test compound, while negative control wells contain Opti-Mem only. […] Once supernatants are removed, the relative viability of adherent cells in the 96-well TC plate are determined using a CellTiter-Glo® luminescent cell viability assay (Promega).

NLRP3, sequence (Q96P20 whole entry): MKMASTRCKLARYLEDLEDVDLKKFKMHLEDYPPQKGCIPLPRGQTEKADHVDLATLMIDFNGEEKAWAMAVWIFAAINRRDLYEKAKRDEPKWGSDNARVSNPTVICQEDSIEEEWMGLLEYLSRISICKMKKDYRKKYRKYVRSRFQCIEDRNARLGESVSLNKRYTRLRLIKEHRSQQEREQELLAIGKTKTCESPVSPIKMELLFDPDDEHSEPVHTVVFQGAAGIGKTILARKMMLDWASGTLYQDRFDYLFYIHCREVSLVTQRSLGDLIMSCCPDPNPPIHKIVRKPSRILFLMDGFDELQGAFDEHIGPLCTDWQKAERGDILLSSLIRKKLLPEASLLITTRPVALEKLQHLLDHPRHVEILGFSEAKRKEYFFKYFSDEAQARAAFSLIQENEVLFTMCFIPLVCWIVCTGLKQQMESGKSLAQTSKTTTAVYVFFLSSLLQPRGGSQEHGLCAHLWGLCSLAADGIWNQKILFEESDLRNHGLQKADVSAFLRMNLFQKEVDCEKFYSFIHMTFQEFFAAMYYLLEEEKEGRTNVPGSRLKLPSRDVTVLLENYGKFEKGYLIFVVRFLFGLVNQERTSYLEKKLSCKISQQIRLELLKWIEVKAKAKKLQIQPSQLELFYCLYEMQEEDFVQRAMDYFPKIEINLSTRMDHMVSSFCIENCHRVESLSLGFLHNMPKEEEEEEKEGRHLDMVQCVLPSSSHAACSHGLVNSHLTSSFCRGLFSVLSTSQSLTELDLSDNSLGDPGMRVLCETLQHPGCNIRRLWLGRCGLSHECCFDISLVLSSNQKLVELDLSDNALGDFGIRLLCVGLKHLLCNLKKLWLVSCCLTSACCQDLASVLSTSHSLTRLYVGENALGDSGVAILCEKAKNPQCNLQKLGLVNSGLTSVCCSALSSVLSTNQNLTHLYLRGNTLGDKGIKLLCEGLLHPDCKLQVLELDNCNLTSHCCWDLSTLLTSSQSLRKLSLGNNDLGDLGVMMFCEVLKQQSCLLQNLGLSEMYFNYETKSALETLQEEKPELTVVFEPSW

Structure (SMILES)	IC50 [nM]
CCOc1cc(C(=O)N(Cc2cnc(C)c3cn[nH]c23)CC(C)(C)O)ccc1-c1cccc(F)c1 [Compound 053]	< 100
CCOc1cc(C(=O)N(C)[C@H](CCN(C)CCCF)c2cncc3cn[nH]c23)ccc1-c1cccc(F)c1 [Compound 137]	< 100
CCOc1cc(C(=O)N(C)[C@@H](CCO)c2cnc(C)c3cn[nH]c23)ccc1-c1cccc(Cl)c1 [Compound 029]	< 100
CCOc1cc(C(=O)N(C)[C@H](c2cccc3cn[nH]c23)C2CN(C)C2)ccc1-c1cccc(F)c1 [Compound 298]	< 100
CCOc1cc(C(=O)N(C)[C@H](CN(CC)CC)c2cccc3cn[nH]c23)ccc1-c1cccc(F)c1 [Compound 260]	1000 to 15000
CCOc1cc(C(=O)N(Cc2cncc3cn[nH]c23)[C@H]2CC[C@@H]2N)ccc1-c1cccc(F)c1 [Compound 294]	500 to 1000
CCOc1cc(C(=O)N(C)[C@@H](c2cncc3cn[nH]c23)C2CNC2)ccc1-c1ccccc1 [Compound 150]	1000 to 15000
CCOc1cc(C(=O)N(Cc2cncc3cn[nH]c23)C2CC(NC)C2)ccc1-c1cccc(Cl)c1 (stereo not drawn) [Compound 236]	< 100
CCOc1cc(C(=O)N(C)[C@@H](c2cncc3cn[nH]c23)[C@H]2CCN(C)C2)ccc1-c1ccccc1 [Compound 153]	< 100
CCOc1cc(C(=O)N(C)[C@H](CCN(C)C)c2cncc3cn[nH]c23)ccc1-c1cccc(C)c1 [Compound 091]	< 100
CCOc1cc(C(=O)N(C)[C@H](CCN)c2cncc3cn[nH]c23)ccc1-c1ccccc1 [Compound 140]	< 100
CCOc1cc(C(=O)N(C)[C@H](CC[N+](C)(C)[O-])c2cncc3cn[nH]c23)ccc1-c1cccc(Cl)c1 [Compound 210]	1000 to 15000
CN(C)CC[C@H](c1cccc2cn[nH]c12)N(C)C(=O)c1ccc(-c2cccc(F)c2)c(OC2CC2)c1 [Compound 198]	< 100
CCOc1cc(C(=O)N(Cc2cnc(C)c3cn[nH]c23)C2CC2O)ccc1-c1cccc(F)c1 (stereo not drawn) [Compound 045]	< 100
CCOc1cc(C(=O)N(C)[C@H](CCN2CCCC2)c2cncc3cn[nH]c23)ccc1-c1cccc(F)c1 [Compound 104]	< 100
CCOc1cc(C(=O)N(CCN2CCCC2)Cc2cncc3cn[nH]c23)ccc1-c1cccc(F)c1 [Compound 119]	< 100
CCOc1cc(C(=O)N(Cc2cncc3cn[nH]c23)C2CC(NC)C2)ccc1-c1ccccc1 (stereo not drawn) [Compound 237]	1000 to 15000
CCOc1cc(C(=O)N(Cc2cncc3cn[nH]c23)C2CC(N(C)C)C2)ccc1-c1cccc(Cl)c1 (stereo not drawn) [Compound 242]	100 to 500
CCOc1cc(C(=O)N(Cc2ccc(C)c3cn[nH]c23)[C@H]2C[C@@H](NC)C2)ccc1-c1cccc(F)c1 [Compound 266]	< 100
CCOc1cc(C(=O)N(Cc2ccc(C)c3cn[nH]c23)[C@H]2C[C@@H](NC)C2)ccc1-c1cccc(Cl)c1 [Compound 286]	< 100
CCOc1cc(C(=O)N(C)[C@H](c2cncc3cn[nH]c23)[C@@H]2CCNC2)ccc1-c1ccccc1 [Compound 154]	< 100

Structure (SMILES)	IC50 [nM]
CCOc1cc(C(=O)N(C)[C@H](c2cccc3cn[nH]c23)C2CN(C)C2)ccc1-c1cccc(Cl)c1 [Compound 283]	< 100
CCOc1cc(C(=O)N(CCN2CCCC(F)(F)C2)Cc2cncc3cn[nH]c23)ccc1-c1cccc(F)c1 [Compound 113]	< 100
CCOc1cc(C(=O)N(C)[C@H](CN2CCCC2)c2cccc3cn[nH]c23)ccc1-c1cccc(F)c1 [Compound 222]	500 to 1000
CCOc1cc(C(=O)N(C)[C@H](CCN(C)C)c2cncc3cn[nH]c23)ccc1C1CCCC1 [Compound 157]	< 100
CCOc1cc(C(=O)N(C)[C@@H](c2cncc3cn[nH]c23)[C@@H]2CCNC2)ccc1-c1cccc(F)c1 (single isomer, unassigned) [Compound 087]	< 100
CCOc1cc(C(=O)N(C)C(c2cncc3cn[nH]c23)C2C[N+](C)([O-])C2)ccc1-c1cccc(F)c1 (stereo not drawn) [Compound 192]	100 to 500
CCOc1cc(C(=S)N(C)[C@H](CCN(C)C)c2cncc3cn[nH]c23)ccc1-c1cccc(F)c1 [Compound 224]	< 100
CCOc1cc(C(=O)N(Cc2cncc3cn[nH]c23)[C@H]2C[C@@H](CN)C2)ccc1-c1cccc(F)c1 [Compound 248]	< 100
CCOc1cc(CN(CCN2CCOCC2)Cc2cncc3cn[nH]c23)ccc1-c1cccc(F)c1 [Compound 118]	100 to 500
CCOc1cc(C(=O)N(CCO)Cc2cncc3cn[nH]c23)ccc1-c1cccc(Cl)c1 [Compound 042]	< 100
CCOc1cc(C(=O)N(C)[C@@H](c2cncc3cn[nH]c23)C2CNC2)ccc1-c1cccc(F)c1 [Compound 097]	< 100
CCOc1cc(C(=O)N(C)[C@H](CCOC)c2cncc3cn[nH]c23)ccc1-c1cccc(Cl)c1 [Compound 016]	> 15000
CCOc1cc(C(=O)N(C)[C@@H](CO)c2cnc(C)c3cn[nH]c23)ccc1-c1cccc(F)c1 [Compound 027]	< 100
CCOc1cc(C(=O)N(C)[C@H](CCN(C)C)c2ccc(C)c3cn[nH]c23)ccc1-c1ccccc1 [Compound 204]	100 to 500
CCOc1cccc(C(=O)N(C)[C@H](CCN(C)C)c2cnc(CO)c3cn[nH]c23)c1 [Compound 180]	500 to 1000
CCOc1cc(C(=O)N(C)[C@H](CO)c2cncc3cn[nH]c23)ccc1-c1cc(C)cc(F)c1 [Compound 003]	< 100
CCOc1cc(C(=O)N(CCO)Cc2cnc(NC)c3cn[nH]c23)ccc1-c1cccc(Cl)c1 [Compound 049]	< 100
CCOc1cc(C(=O)N(C)C(CN2CCC2)c2cccc3cn[nH]c23)ccc1-c1cccc(F)c1 (stereo not drawn) [Compound 264]	< 100
CCOc1cc(C(=O)N(C)[C@H](CCN(C)C)c2cnc(C)c3cn[nH]c23)ccc1-c1cccc(C)c1 [Compound 084]	< 100
CCOc1cc(C(=O)N(C)[C@H](CCN(C)C)c2cnc(C)c3cn[nH]c23)ccc1-c1cccc(F)c1 [Compound 075]	< 100
CCOc1cc(C(=O)N(CCN2CCCC(F)C2)Cc2cncc3cn[nH]c23)ccc1-c1cccc(F)c1 (stereo not drawn) [Compound 114]	< 100

Structure (SMILES)	IC50 [nM]
CCOc1cc(C(=O)N(C)[C@H](CCOC)c2cncc3cn[nH]c23)ccc1-c1cccc(F)c1 [Compound 015]	< 100
CCOc1cc(C(=O)N(C)[C@@H](c2cnc(C)c3cn[nH]c23)C2CN(C)C2)ccc1-c1cccc(F)c1 [Compound 071]	< 100
Cc1ccc([C@H](CCN(C)C)N(C)C(=O)c2ccc(-c3cccc(F)c3)c(OC3CC3)c2)c2[nH]ncc12 [Compound 203]	< 100
CCOc1cc(C(=O)N(CCN2C[C@@H](F)[C@H](F)C2)Cc2cncc3cn[nH]c23)ccc1-c1cccc(F)c1 [Compound 107]	< 100
[2H]C([2H])([2H])NCC[C@H](c1cncc2cn[nH]c12)N(C)C(=O)c1ccc(-c2cccc(F)c2)c(OCC)c1 [Compound 231]	< 100
CCOc1cc(C(=O)N(C)[C@H](CCN(C)C)c2cnc(C)c3cn[nH]c23)ccc1-c1cccc(Cl)c1 [Compound 076]	< 100
CCOc1cc(C(=O)N(C)[C@H](CCN(C)C)c2cnc(C)c3cn[nH]c23)ccc1-c1cc(Cl)cc(Cl)c1 [Compound 083]	< 100
CCOc1cc(C(=O)N(CCN2C[C@@H](F)C[C@H](F)C2)Cc2cncc3cn[nH]c23)ccc1-c1cccc(F)c1 [Compound 111]	< 100
CCOc1cc(C(=O)N(C)[C@H](CN(C)C)c2cncc3cn[nH]c23)ccc1-c1cccc(Cl)c1 [Compound 125]	< 100
CCOc1cc(C(=O)N(C)[C@H](CN2CCCC2)c2cncc3cn[nH]c23)ccc1-c1cccc(F)c1 [Compound 129]	500 to 1000
CCOc1cc(C(=O)N(C)[C@H](CCN2CCC(F)(F)C2)c2cncc3cn[nH]c23)ccc1-c1cccc(F)c1 [Compound 100]	< 100
CCOc1cc(C(=O)N(C)[C@H](CCN(C)C)c2cncc3cn[nH]c23)ccc1-c1cc(F)cc(C#N)c1 [Compound 279]	< 100
CN(C(=O)c1ccc(-c2cccc(F)c2)c(OC2CC2)c1)[C@H](CCN1CCC1)c1cncc2cn[nH]c12 [Compound 225]	< 100
CCOc1cc(C(=O)N(C)[C@H](CCN(C)C)c2cncc3cn[nH]c23)ccc1C1CCC1 [Compound 156]	< 100
CCOc1cc(C(=O)N(C)[C@@H](c2cncc3cn[nH]c23)[C@H]2CCN(C)C2)ccc1-c1cccc(F)c1 [Compound 082]	< 100
CCOc1cc(C(=O)N(C)[C@H](CCN(C)C)c2cccc3cn[nH]c23)ccc1-c1cc(F)cc(F)c1 [Compound 219]	< 100
CCOc1cc(C(=O)N(C)[C@H](CCNC)c2cncc3cn[nH]c23)ccc1-c1ccccc1 [Compound 193]	< 100
CCOc1cc(C(=O)N(C)[C@H](CN(C)C)c2cncc3cn[nH]c23)ccc1-c1cccc(F)c1 [Compound 121]	< 100
CCOc1cc(C(=O)N(C)[C@H](CCNC)c2cncc3cn[nH]c23)ccc1-c1cccc(Cl)c1 [Compound 228]	< 100
CCOc1cc(C(=O)N(Cc2cncc3cn[nH]c23)C2CC(N(C)C)C2)ccc1-c1cccc(F)c1 (stereo not drawn) [Compound 240]	500 to 1000
CCOc1cc(C(=O)N(C)[C@@H](c2cncc3cn[nH]c23)C2CN(C)C2)ccc1-c1cccc(Cl)c1 [Compound 183]	< 100
